Source: patent publication US6462052B1, “Synergistic fungicide and/or bactericide composition” (Rhone-Poulenc Agro, priority 1998, dated 2002)

Test system: Venturia inaequalis
Experiment: Combination of pyrimethanil and dodine in controlling apple scab: curative treatment of inoculated apple plants
Format: in vivo
Conditions: for Practical efficacy: treated 3 days after inoculation, scored one month after inoculation; for Protection (in words): used alone
Description: Example: Combination of pyrimethanil and dodine in controlling apple scab
The fungicides evaluated are the following:
The fungicidal compositions evaluated are the following:
Apple plants (var. Melrose Golden) at the 5-6-leaf stage are inoculated with an aqueous suspension containing 150 000 spores of Venturia inaequalis/ml of inoculum. The plants are then placed in a climatic cell at 16-18° C., 100% RH (relative humidity) for 3 days. They are then treated with the fungicidal compositions at the doses cited above (12 repeats/dose) in a plant protection mixture at 500 l/ha and are again placed under the conditions described above. One month after the inoculation, scores are awarded. This consists in estimating the diseased leaf surface area in the two leaf stages sensitive to the disease and, by comparing with an untreated contaminated control, in defining the percentage efficacy according to the following formula:
% practical efficacy=100×(% contamination Control−% contamination Trial)/% contamination Control
The theoretical efficacy according to the Colby formula is calculated based on the following formula:
% theoretical efficacy A+B=% practical eff. A+% practical eff. B−(% practical eff. A×% practical eff. B/100)

Row | Molecule | Practical efficacy (dodine 150 g/ha alone) [%] | Practical efficacy (dodine 300 g/ha alone) [%] | Practical efficacy (dodine 600 g/ha alone) [%] | Protection (in words) | Practical efficacy (pyrimethanil 50 g/ha alone, apple plants var. Melrose Golden) [%] | Practical efficacy (pyrimethanil 100 g/ha alone) [%] | Practical efficacy (pyrimethanil 200 g/ha alone) [%]
1 | dodecylguanidine monoacetate [dodine] | 30.8 | 76.9 | 75 | partial protection | – | – | –
2 | Cc1cc(C)nc(Nc2ccccc2)n1 [pyrimethanil] | – | – | – | partial protection | 65.4 | 65.4 | 61.5
